The record followed here is the supplement of paper PMC8967900.

SMILES strings stand for the structures.
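Also: ALL cell lines in 384-well plates, five doses spanning 10,000-fold, each plate scaled between vehicle and 100 µmol/L benzalkonium chloride controls, sDSS an adapted area-under-curve metric.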

For the first assay, the system named is COG-LL-332h. Description: selective drug sensitivity score (sDSS, relative to normal bone marrow) (sDSS (score)); higher = more potent and effective on the cell line relative to normal bone marrow cells. To be noted: 72 h.
As to `C[C@H]1C[C@@H]2[C@H]([C@@H](O)C[C@@]3(C)[C@H]2CC[C@]3(O)C(=O)CO)[C@@]2(C)C=CC(=O)C=C12` [Methylprednisolone] (top concentration 10000 nM), the “selective drug sensitivity score” value is -0.7.

Take `FC(F)(F)c1ccc(/C=C/c2nc(COc3ccc(CCCCn4ccnn4)cc3)co2)cc1` [Mubritinib] (top concentration 1000 nM): the “selective drug sensitivity score” value stood at 8.06.

Turning to `COc1cc2c(cc1OC(C)C)[C@H](c1ccc(Cl)cc1)N(c1ccc(N(C)C[C@H]3CC[C@H](N4CCN(C)C(=O)C4)CC3)cc1)C(=O)C2` [NVP-CGM097] (top concentration 25000 nM), the “selective drug sensitivity score” value stood at 8.26.

As to `CCOc1cc2ncc(C#N)c(Nc3ccc(OCc4ccccn4)c(Cl)c3)c2cc1NC(=O)/C=C/CN(C)C` [Neratinib] (top concentration 1000 nM), the “selective drug sensitivity score” value was 1.88.

For the compound `COc1ncc(-c2ccc3nccc(-c4ccnnc4)c3c2)cc1NS(=O)(=O)c1ccc(F)cc1F` [Omipalisib] (top concentration 1000 nM), the “selective drug sensitivity score” value stood at 3.2.

For the compound `CN1CCN(c2cc(C(=O)Nc3ccc4c(c3)-c3c(c(C(N)=O)nn3-c3ccc(F)cc3)CC4)c(Cl)cn2)CC1` [PHA-408] (top concentration 10000 nM), the “selective drug sensitivity score” value amounted to 2.98.

`OC[C@H]1O[C@@H](n2cnc3c2N=CNC[C@H]3O)C[C@@H]1O` [Pentostatin] (top concentration 10000 nM): the “selective drug sensitivity score” value is -0.44.

Take `CC(C)N(C[C@H]1O[C@@H](n2cnc3c(N)ncnc32)[C@H](O)[C@@H]1O)[C@H]1C[C@@H](CCc2nc3cc(C(C)(C)C)ccc3[nH]2)C1` [Pinometostat] (top concentration 1000 nM): the “selective drug sensitivity score” value stood at 0.

In the case of `Cc1ccc(=O)n(-c2ccccc2)c1` [Pirfenidone] (top concentration 10000 nM), the “selective drug sensitivity score” value came to 0.

The test system of the next assay is HPB-ALL. The description is as above. Conditions: 72 h.
Turning to `CC(=O)[C@]1(O)Cc2c(O)c3c(c(O)c2[C@@H](O[C@H]2C[C@H](N)[C@H](O)[C@H](C)O2)C1)C(=O)c1ccccc1C3=O` [Idarubicin] (top concentration 1000 nM), the “selective drug sensitivity score” value stood at 3.14.

As to `COc1cc2nccc(Oc3ccc(NC(=O)NC4CC4)c(Cl)c3)c2cc1C(N)=O` [Lenvatinib] (top concentration 2500 nM), the “selective drug sensitivity score” value is -0.24.

`N#Cc1ccc(C(c2ccc(C#N)cc2)n2cncn2)cc1` [Letrozole] (top concentration 10000 nM): the “selective drug sensitivity score” value is -0.04.

`CCNCCS(=O)(=O)NC[C@@]1(c2ccccc2)SC(NC(=O)C(C)(C)C)=NN1C(=O)C(C)(C)C` [Litronesib] (top concentration 1000 nM): the “selective drug sensitivity score” value was found to be 19.7.

Regarding `CC[C@H](C)C(=O)O[C@H]1C[C@@H](C)C=C2C=C[C@H](C)[C@H](CC[C@@H]3C[C@@H](O)CC(=O)O3)[C@H]21` [Lovastatin] (top concentration 10000 nM), the “selective drug sensitivity score” value is -0.1.

Turning to `Cn1cc(-c2cnn3c(N)c(Br)c([C@@H]4CCCNC4)nc23)cn1` [MK-8776] (top concentration 2500 nM), the “selective drug sensitivity score” value is -1.46.

As to `Cc1cnc(-c2ccccc2C(C)C)nc1NCc1ccc(-n2ccnn2)cc1` [ML323] (top concentration 10000 nM), the “selective drug sensitivity score” value stood at 0.64.

With `O=C(CCNC(=O)c1ccc(OC(F)(F)F)cc1)N[C@@H]1CCCc2ccccc21` [ML390] (top concentration 50000 nM), the “selective drug sensitivity score” value came to 6.5.

On to `CN(C)C(=N)NC(=N)N` [Metformin] (top concentration 100000 nM), for which the “selective drug sensitivity score” value was -0.02.

Take `C[C@H]1C[C@@H]2[C@H]([C@@H](O)C[C@@]3(C)[C@H]2CC[C@]3(O)C(=O)CO)[C@@]2(C)C=CC(=O)C=C12` [Methylprednisolone] (top concentration 10000 nM): the “selective drug sensitivity score” value turned out to be 5.

As to `FC(F)(F)c1ccc(/C=C/c2nc(COc3ccc(CCCCn4ccnn4)cc3)co2)cc1` [Mubritinib] (top concentration 1000 nM), the “selective drug sensitivity score” value was 8.86.

`COc1cc2c(cc1OC(C)C)[C@H](c1ccc(Cl)cc1)N(c1ccc(N(C)C[C@H]3CC[C@H](N4CCN(C)C(=O)C4)CC3)cc1)C(=O)C2` [NVP-CGM097] (top concentration 25000 nM): the “selective drug sensitivity score” value was -3.14.

In the case of `CCOc1cc2ncc(C#N)c(Nc3ccc(OCc4ccccn4)c(Cl)c3)c2cc1NC(=O)/C=C/CN(C)C` [Neratinib] (top concentration 1000 nM), the “selective drug sensitivity score” value came out at 2.38.

With `COc1ncc(-c2ccc3nccc(-c4ccnnc4)c3c2)cc1NS(=O)(=O)c1ccc(F)cc1F` [Omipalisib] (top concentration 1000 nM), the “selective drug sensitivity score” value amounted to 3.8.

As for `CN1CCN(c2cc(C(=O)Nc3ccc4c(c3)-c3c(c(C(N)=O)nn3-c3ccc(F)cc3)CC4)c(Cl)cn2)CC1` [PHA-408] (top concentration 10000 nM), the “selective drug sensitivity score” value was -0.92.

On to `OC[C@H]1O[C@@H](n2cnc3c2N=CNC[C@H]3O)C[C@@H]1O` [Pentostatin] (top concentration 10000 nM), for which the “selective drug sensitivity score” value was -0.44.

Take `CC(C)N(C[C@H]1O[C@@H](n2cnc3c(N)ncnc32)[C@H](O)[C@@H]1O)[C@H]1C[C@@H](CCc2nc3cc(C(C)(C)C)ccc3[nH]2)C1` [Pinometostat] (top concentration 1000 nM): the “selective drug sensitivity score” value came to 0.

On to `Cc1ccc(=O)n(-c2ccccc2)c1` [Pirfenidone] (top concentration 10000 nM), for which the “selective drug sensitivity score” value came to 0.

The test system of the next assay is DND-41. Described as above. Conditions: 72 h.
Regarding `CC(=O)[C@]1(O)Cc2c(O)c3c(c(O)c2[C@@H](O[C@H]2C[C@H](N)[C@H](O)[C@H](C)O2)C1)C(=O)c1ccccc1C3=O` [Idarubicin] (top concentration 1000 nM), the “selective drug sensitivity score” value is 0.34.

In the case of `COc1cc2nccc(Oc3ccc(NC(=O)NC4CC4)c(Cl)c3)c2cc1C(N)=O` [Lenvatinib] (top concentration 2500 nM), the “selective drug sensitivity score” value is -0.24.

Regarding `N#Cc1ccc(C(c2ccc(C#N)cc2)n2cncn2)cc1` [Letrozole] (top concentration 10000 nM), the “selective drug sensitivity score” value came out at 1.06.

Turning to `CCNCCS(=O)(=O)NC[C@@]1(c2ccccc2)SC(NC(=O)C(C)(C)C)=NN1C(=O)C(C)(C)C` [Litronesib] (top concentration 1000 nM), the “selective drug sensitivity score” value is 8.64.

`CC[C@H](C)C(=O)O[C@H]1C[C@@H](C)C=C2C=C[C@H](C)[C@H](CC[C@@H]3C[C@@H](O)CC(=O)O3)[C@H]21` [Lovastatin] (top concentration 10000 nM): the “selective drug sensitivity score” value was -0.1.

As to `Cn1cc(-c2cnn3c(N)c(Br)c([C@@H]4CCCNC4)nc23)cn1` [MK-8776] (top concentration 2500 nM), the “selective drug sensitivity score” value stood at 3.84.

`Cc1cnc(-c2ccccc2C(C)C)nc1NCc1ccc(-n2ccnn2)cc1` [ML323] (top concentration 10000 nM): the “selective drug sensitivity score” value came out at 1.34.

As for `O=C(CCNC(=O)c1ccc(OC(F)(F)F)cc1)N[C@@H]1CCCc2ccccc21` [ML390] (top concentration 50000 nM), the “selective drug sensitivity score” value was 5.4.

`CN(C)C(=N)NC(=N)N` [Metformin] (top concentration 100000 nM): the “selective drug sensitivity score” value amounted to 0.08.

Turning to `C[C@H]1C[C@@H]2[C@H]([C@@H](O)C[C@@]3(C)[C@H]2CC[C@]3(O)C(=O)CO)[C@@]2(C)C=CC(=O)C=C12` [Methylprednisolone] (top concentration 10000 nM), the “selective drug sensitivity score” value worked out at 31.6.

Regarding `FC(F)(F)c1ccc(/C=C/c2nc(COc3ccc(CCCCn4ccnn4)cc3)co2)cc1` [Mubritinib] (top concentration 1000 nM), the “selective drug sensitivity score” value worked out at 5.46.

Regarding `COc1cc2c(cc1OC(C)C)[C@H](c1ccc(Cl)cc1)N(c1ccc(N(C)C[C@H]3CC[C@H](N4CCN(C)C(=O)C4)CC3)cc1)C(=O)C2` [NVP-CGM097] (top concentration 25000 nM), the “selective drug sensitivity score” value is -5.64.

As for `CCOc1cc2ncc(C#N)c(Nc3ccc(OCc4ccccn4)c(Cl)c3)c2cc1NC(=O)/C=C/CN(C)C` [Neratinib] (top concentration 1000 nM), the “selective drug sensitivity score” value was -0.62.

Regarding `COc1ncc(-c2ccc3nccc(-c4ccnnc4)c3c2)cc1NS(=O)(=O)c1ccc(F)cc1F` [Omipalisib] (top concentration 1000 nM), the “selective drug sensitivity score” value was -0.8.

For `CN1CCN(c2cc(C(=O)Nc3ccc4c(c3)-c3c(c(C(N)=O)nn3-c3ccc(F)cc3)CC4)c(Cl)cn2)CC1` [PHA-408] (top concentration 10000 nM), the “selective drug sensitivity score” value turned out to be 3.48.

`OC[C@H]1O[C@@H](n2cnc3c2N=CNC[C@H]3O)C[C@@H]1O` [Pentostatin] (top concentration 10000 nM): the “selective drug sensitivity score” value is -0.44.

Regarding `CC(C)N(C[C@H]1O[C@@H](n2cnc3c(N)ncnc32)[C@H](O)[C@@H]1O)[C@H]1C[C@@H](CCc2nc3cc(C(C)(C)C)ccc3[nH]2)C1` [Pinometostat] (top concentration 1000 nM), the “selective drug sensitivity score” value was 0.

For the compound `Cc1ccc(=O)n(-c2ccccc2)c1` [Pirfenidone] (top concentration 10000 nM), the “selective drug sensitivity score” value stood at 0.
